According to patent US11542492B2 (Celgene CAR LLC, priority 2009, dated 2023):

Legend:
recombinant human cIAP-1 = target: T1, recombinant human cIAP-1 (Homo sapiens, UniProt Q13490); assay: Fluorescence polarization competition binding assay, cIAP-1; conditions: c-IAP-1, 3 h
T1 construct: purchased R&D Systems 818-IA
Protocol: (§1) Homogeneous, Fluorescence Polarization, Competition Binding Assay Protocol for Affinity Assessment of Compound Binding to XIAP, cIAP-1 and ML-IAPβ BIR3 Domains
(§2) 1× stocks of recombinant human XIAP; BIR3 domain (895-XB), recombinant human cIAP-1 (818-IA) or recombinant human ML-IAPβ (818-IA) from R&D Systems and Fluorescence Polarization (FP) assay tracer (Atto-647 tagged IAP inhibitor probe compound) were prepared in assay buffer consisting of 25 mM Tris-HCL, pH 7.5 (Sigma), 10 mM […] (Sigma), 1 mM DTT (Fluka) and 0.005% TritonX-100 (Pierce). While IAP protein and tracer equilibrated at ambient temp in the dark (30-60 min), 100× stocks of test compound were prepared in 50% DMSO:H2O, serially diluted and spotted (0.5 µL/well) in duplicate wells of a 384-well, flat bottom, polypropylene, black assay plate (Greiner #781209). […] Competition binding between test compounds and assay tracer was initiated by the addition of 50 µL/well of pre-equilibrated IAP protein and assay tracer. Displacement of the assay tracer was measured in a Synergy plate reader from BioTek (Winooski, Vt.) at λex620/λem680 through a 660 nm half-sized dicroich mirror and S/P polarizing filters every 30 min for 3 hr. (See Huang, X., Journal of Biomolecular Screening 8, 2003). The resulting compound dose response data were fit to a one-site binding Ki model in GraphPad Prism from GraphPad Software (San Diego, Calif.).

[1] = target: T2, recombinant human ML-IAPβ (Homo sapiens, UniProt Q96CA5); assay: Fluorescence polarization competition binding assay, ML-IAPβ; conditions: ML-IAP, 2 h
T2 construct: purchased R&D Systems 818-IA
T2 sequence (Q96CA5 1-280 isoform Q96CA5-2): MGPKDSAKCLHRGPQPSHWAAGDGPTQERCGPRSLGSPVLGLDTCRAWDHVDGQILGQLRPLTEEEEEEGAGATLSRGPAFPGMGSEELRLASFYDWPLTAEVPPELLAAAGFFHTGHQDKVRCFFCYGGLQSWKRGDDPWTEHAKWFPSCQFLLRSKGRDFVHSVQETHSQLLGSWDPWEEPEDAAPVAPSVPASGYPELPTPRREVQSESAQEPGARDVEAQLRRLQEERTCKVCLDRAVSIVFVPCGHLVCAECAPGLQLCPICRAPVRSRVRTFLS
Protocol: as §1, §2

PDPK1 [2] = target: T3, PDPK1 (Homo sapiens, UniProt O15530); assay: MALDI MS of intact PDPK1 incubated with compound; type: binding; set-up: purchased Millipore 14-452; conditions: for mass shift of PDPK1: 10-fold excess of compound to protein; for Number of Modifications on Whole Protein: PDPK1 whole protein, MS
T3 sequence (O15530 1-556): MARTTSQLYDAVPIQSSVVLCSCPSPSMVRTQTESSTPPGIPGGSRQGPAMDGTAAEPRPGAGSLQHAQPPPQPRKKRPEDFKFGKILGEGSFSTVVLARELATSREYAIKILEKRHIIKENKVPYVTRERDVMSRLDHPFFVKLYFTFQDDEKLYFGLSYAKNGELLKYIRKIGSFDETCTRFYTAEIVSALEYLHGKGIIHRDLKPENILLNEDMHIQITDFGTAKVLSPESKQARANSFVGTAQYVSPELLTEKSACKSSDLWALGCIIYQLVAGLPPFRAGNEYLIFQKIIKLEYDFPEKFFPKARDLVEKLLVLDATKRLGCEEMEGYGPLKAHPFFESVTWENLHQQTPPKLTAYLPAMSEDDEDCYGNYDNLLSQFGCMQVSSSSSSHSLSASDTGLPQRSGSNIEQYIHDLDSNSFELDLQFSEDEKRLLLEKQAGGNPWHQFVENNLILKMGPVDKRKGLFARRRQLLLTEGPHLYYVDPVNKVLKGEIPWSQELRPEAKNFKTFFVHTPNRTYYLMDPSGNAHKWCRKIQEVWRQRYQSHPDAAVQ
Protocol: Intact PDPK1 was incubated for 3 hr at a 10-fold excess of compound XI-27 to protein. 3 μL aliquots of the samples were diluted with 10 μL of 0.1% TFA prior to micro C4 Ziptipping directly onto the MALDI target plate using sinapinic acid as the desorption matrix (10 mg/mL in 0.1% TFA:Acetonitrile 50:50).
Intact PDPK1 was incubated for 3 hr at a 10-fold excess of compound XI-21 to protein. 3 μL aliquots of the samples were diluted with 10 μL of 0.1% TFA prior to micro C4 Ziptipping directly onto the MALDI target plate using sinapinic acid as the desorption matrix (10 mg/mL in 0.1% TFA:Acetonitrile 50:50).
For example, Table 7 lists non-limiting examples of compounds that modify PDPK1 whole protein, the number of modifications per protein and the lysines modified within the protein. […] Also, the lysine modified in PDPK-1 by XI-27, XI-26, XI-22, and XI-21 are not the same for each compound. Without wishing to be bound to any particular theory, the position of the warhead, as presented by the scaffold and tether to the lysines in the binding site, effects different results on the modification of the different lysines in the binding site of PDPK-1.

PDPK1 [3] = target: T3, PDPK1; assay: PDK1-OMNIA kinase assay (ST28-Sox peptide); type: biochemical; set-up: purchased Invitrogen, BPS or SignalChem P3001 (Invitrogen), 40080 (BPS), P14-10H (SignalChem); conditions: PDPK1 enzyme pre-incubated 30 min at 25° C. with compound; [ATP]=5 μM; ST28-Sox peptide substrate; read-out: Inhibition/Modification Designation (IC50, PDK1-OMNIA)
Protocol: Briefly, a 10× stock of PDPK1 enzyme from Invitrogen (P3001) or BPS (40080) or SignalChem (P14-10H), 1.13×ATP (AS001A) and ST28-Sox peptide substrate (KNZ1281C) were prepared in 1× kinase reaction buffer consisting of 20 mM Tris, pH 7.5, 5 mM MgCl2, 1 mM EGTA, 5 mM β-glycerophosphate, 5% glycerol (10× stock, KB002A) and 0.2 mM DTT (DS001A). 5 μL of enzyme were pre-incubated in a Corning (#3574) 384-well, white, non-binding surface microtiter plate (Corning, N.Y.) for 30 min at 25° C. with a 0.5 μL volume of 50% DMSO and serially diluted compounds prepared in 50% DMSO. Kinase reactions were started with the addition of 45 […] of the ST28-Sox peptide substrate and monitored every 71 seconds for 30-60 minutes at λex360/λem485 in a Synergy4 plate reader from BioTek (Winooski, Vt.). At the conclusion of each assay, progress curves from each well were examined for linear reaction kinetics and fit statistics (R^2, 95% confidence interval, absolute sum of squares). Post-lag velocity (+10 minutes to 20+ minutes) from each reaction was estimated from the slope of a plot of relative fluorescence units vs time (minutes) and normalized to the no enzyme and no inhibitor control groups for % Inhibition. The resulting inhibition values were then plotted against inhibitor concentration to estimate IC50 from log [Inhibitor] vs Response, Variable Slope model in GraphPad Prism from GraphPad Software (San Diego, Calif.).
[Reagent] used in provisional protocol(s): Invitrogen—[PDPK1]=5-10 nM, [ATP]=5 μM and [ST28-Sox]=5 μM or 10 μM (ATP KMapp=4-6 μM); BPS—[PDPK1]=10-15 nM, [ATP]=5 μM and [ST28-Sox]=10 μM (ATP KMapp=3-5 μM); SignalChem—[PDPK1]=5-10 nM, [ATP]=5 μM and [ST28-Sox]=5 μM or 10 μM (ATP KMapp ND)

p120γ (PI3Kγ) = target: T4, p120γ (PI3Kγ) (Homo sapiens, UniProt P48736); assay: HTRF assay, p120γ; type: biochemical; conditions: PI3Kγ; read-out: PI3Kγ HTRF IC50 Inhibition Designation
T4 construct: purchased BPS Bioscience 40625
Outline: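 End-point competition-binding HTRF with 1-4 nM enzyme and 10 μM di-C8-PIP2, pre-incubated with compound 30 min at 25° C, then 50 μM ATP for 15-30 min at 25° C. HTRF ratio (665/620 nm) gave % inhibition; IC50 from variable-slope log-dose fit.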

p110α/p85α (PI3Kα) = target: T5, p110α/p85α (PI3Kα) (Homo sapiens, UniProt P42336); assay: HTRF assay, p110α/p85α; type: biochemical; conditions: read-out: PI3Kα-HTRF-IC50 nM Inhibition Designation
T5 construct: purchased BPS Bioscience or Millipore 40620 (BPS Bioscience) or 14-602 (Millipore)
Protocol: HTRF Assay Protocol for Potency Assessment Against the Active Form of p110α/p85α:
The mechanics of the assay platform are best described by the vendor (Millipore, Billerica, Mass.) on their website at the following URL: http://www.millipore.com/coa/tech1/74jt4z.
Briefly, Stop solution (Stop A, #33-007 and Stop B, #33-009; 3:1 ratio) and Detection Mix (DMC, #33-015 with DMA, #33-011 and DMB, #33-013; 18:1:1 ratio) were prepared as recommended by the manufacturer ˜2 hrs prior to use. […] Lipid kinase reactions were started with the addition of 5 μL of ATP solution, mixed for 15 sec on a rotary plate shaker and incubated for 15-30 minutes at 25° C. Next, reactions were stopped with a 5 μL addition of Stop solution followed by a 5 μL volume of Detection Mix. […] At the conclusion of each assay, the HTRF ratio from fluorescence emission values for each well was calculated and % Inhibition determined from averaged controls wells. % Inhibition values for each compound re then plotted against inhibitor concentration to estimate IC50 from log [Inhibitor] vs Response, Variable Slope model in GraphPad Prism from GraphPad Software (San Diego, Calif.).

HCT116 = assay: HCT116-WB assay; type: cell-based; conditions: Homo sapiens, HCT-116; read-out: HCT116-WB Inhibition Designation

T5 sequence (P42336 whole entry): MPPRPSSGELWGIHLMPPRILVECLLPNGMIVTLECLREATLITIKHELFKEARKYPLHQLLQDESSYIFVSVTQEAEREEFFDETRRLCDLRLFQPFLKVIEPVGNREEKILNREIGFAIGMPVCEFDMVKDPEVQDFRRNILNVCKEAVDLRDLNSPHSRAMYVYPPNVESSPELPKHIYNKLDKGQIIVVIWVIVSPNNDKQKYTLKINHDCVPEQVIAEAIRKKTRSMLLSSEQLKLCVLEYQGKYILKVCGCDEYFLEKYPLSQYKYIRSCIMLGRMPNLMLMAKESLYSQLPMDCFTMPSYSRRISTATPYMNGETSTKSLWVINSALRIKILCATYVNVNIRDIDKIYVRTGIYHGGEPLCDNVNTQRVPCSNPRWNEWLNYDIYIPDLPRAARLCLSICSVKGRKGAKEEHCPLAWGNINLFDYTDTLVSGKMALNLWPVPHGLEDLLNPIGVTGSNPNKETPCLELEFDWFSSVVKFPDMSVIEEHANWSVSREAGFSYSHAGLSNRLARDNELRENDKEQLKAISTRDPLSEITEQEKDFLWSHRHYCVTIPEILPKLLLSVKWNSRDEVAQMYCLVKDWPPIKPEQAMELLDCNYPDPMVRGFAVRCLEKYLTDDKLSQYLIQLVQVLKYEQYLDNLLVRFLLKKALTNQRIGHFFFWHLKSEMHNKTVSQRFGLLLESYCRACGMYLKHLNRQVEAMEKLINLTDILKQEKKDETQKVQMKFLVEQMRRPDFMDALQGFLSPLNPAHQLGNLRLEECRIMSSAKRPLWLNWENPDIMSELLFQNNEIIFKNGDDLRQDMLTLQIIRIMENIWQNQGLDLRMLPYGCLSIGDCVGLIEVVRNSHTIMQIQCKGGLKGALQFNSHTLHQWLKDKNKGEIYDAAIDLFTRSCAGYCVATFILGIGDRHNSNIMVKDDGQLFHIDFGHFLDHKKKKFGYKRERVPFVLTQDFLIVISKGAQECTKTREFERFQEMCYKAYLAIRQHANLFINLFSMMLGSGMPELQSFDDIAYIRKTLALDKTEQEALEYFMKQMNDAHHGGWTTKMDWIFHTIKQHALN
T5 sequence (P27986 whole entry partner): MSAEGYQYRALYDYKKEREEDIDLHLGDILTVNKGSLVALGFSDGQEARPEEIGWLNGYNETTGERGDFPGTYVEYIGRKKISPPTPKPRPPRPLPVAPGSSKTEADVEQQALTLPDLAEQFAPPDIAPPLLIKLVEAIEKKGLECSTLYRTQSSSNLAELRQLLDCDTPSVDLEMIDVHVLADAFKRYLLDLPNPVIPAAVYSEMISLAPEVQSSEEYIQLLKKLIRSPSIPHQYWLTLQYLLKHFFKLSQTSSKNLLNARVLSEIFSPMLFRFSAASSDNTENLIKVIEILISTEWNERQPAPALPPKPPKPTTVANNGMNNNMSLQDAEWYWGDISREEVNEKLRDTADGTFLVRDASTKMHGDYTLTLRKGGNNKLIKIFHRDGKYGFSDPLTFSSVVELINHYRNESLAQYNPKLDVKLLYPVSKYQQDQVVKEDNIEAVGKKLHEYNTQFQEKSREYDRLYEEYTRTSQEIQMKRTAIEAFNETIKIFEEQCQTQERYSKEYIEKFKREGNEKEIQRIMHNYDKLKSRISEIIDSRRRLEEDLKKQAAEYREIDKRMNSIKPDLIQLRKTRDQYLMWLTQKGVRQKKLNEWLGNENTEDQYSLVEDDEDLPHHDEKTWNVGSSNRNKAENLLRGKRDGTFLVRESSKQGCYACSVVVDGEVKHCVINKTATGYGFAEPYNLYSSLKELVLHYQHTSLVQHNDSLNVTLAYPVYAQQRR
T4 sequence (P48736 whole entry): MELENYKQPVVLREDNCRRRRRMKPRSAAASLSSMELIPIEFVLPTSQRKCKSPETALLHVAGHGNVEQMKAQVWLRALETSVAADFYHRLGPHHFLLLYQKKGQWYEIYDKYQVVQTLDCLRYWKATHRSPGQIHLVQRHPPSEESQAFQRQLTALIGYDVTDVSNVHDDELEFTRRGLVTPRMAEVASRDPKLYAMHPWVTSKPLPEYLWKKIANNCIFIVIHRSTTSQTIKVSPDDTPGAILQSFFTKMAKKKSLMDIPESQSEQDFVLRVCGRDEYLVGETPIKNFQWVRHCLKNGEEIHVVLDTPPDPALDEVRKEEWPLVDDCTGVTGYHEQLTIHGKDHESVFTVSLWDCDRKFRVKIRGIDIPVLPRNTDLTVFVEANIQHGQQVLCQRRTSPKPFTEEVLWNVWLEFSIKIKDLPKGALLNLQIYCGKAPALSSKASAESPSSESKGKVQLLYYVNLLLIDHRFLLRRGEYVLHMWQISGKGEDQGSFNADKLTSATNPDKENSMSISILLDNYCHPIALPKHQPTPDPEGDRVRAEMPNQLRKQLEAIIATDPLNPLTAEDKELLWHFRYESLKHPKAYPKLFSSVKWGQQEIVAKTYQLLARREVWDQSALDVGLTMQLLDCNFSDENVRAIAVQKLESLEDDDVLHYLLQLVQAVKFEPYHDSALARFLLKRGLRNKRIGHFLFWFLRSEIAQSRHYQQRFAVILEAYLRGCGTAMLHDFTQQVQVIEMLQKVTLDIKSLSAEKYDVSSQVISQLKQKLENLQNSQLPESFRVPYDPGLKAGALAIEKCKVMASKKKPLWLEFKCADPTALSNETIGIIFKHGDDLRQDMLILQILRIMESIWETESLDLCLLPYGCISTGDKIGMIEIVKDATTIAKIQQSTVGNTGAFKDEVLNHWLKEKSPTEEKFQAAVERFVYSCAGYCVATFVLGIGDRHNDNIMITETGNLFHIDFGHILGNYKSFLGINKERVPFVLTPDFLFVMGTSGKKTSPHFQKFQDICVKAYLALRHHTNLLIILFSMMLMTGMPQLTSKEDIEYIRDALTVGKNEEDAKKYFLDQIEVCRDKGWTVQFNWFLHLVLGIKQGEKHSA
T1 sequence (Q13490 whole entry): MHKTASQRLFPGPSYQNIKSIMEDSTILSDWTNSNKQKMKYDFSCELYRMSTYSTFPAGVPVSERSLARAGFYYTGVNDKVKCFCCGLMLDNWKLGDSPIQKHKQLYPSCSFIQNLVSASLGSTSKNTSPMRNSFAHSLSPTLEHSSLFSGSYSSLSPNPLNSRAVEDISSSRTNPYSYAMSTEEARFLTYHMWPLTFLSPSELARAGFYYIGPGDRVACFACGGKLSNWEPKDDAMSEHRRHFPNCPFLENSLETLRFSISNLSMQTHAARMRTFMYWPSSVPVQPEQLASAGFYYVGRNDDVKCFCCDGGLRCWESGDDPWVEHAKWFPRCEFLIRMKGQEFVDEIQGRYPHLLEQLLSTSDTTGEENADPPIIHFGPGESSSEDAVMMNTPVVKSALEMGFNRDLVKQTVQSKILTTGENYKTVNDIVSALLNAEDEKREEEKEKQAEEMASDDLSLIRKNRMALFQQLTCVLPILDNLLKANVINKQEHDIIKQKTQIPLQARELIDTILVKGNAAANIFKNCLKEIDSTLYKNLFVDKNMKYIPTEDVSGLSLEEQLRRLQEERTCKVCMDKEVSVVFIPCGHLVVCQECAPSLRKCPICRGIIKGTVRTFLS

Row | SMILES | Ki (recombinant human cIAP-1) [µM] | Ki [1] [µM] | Number of Modifications on Whole Protein (PDPK1 [2]) | IC50 (PDPK1 [3]) [µM] | also measured
1 | [2H]C([2H])=C([2H])C(=O)Nc1cccc(CNC(=O)[C@@H]2CC[C@@H]3CCCC[C@H](NC(=O)[C@H](C)NC)C(=O)N32)c1 [VII-16] | 0.1 to 1 | 0.1 to 1 |  |  | 
2 | C=CS(=O)(=O)Nc1cccc(CNC(=O)[C@@H]2CC[C@@H]3CCCC[C@H](NC(=O)[C@H](C)NC)C(=O)N32)c1 [VII-23] | < 0.01 | 0.01 to 0.1 |  |  | 
3 | CN[C@@H](C)C(=O)N[C@H]1CCCC[C@H]2CC[C@@H](C(=O)NCc3cccc(COC(=O)CC(C)=O)c3)N2C1=O [VII-29] | 1 to 10 | 0.01 to 0.1 |  |  | 
4 | CN[C@@H](C)C(=O)N[C@H]1CCCC[C@H]2CC[C@@H](C(=O)N[C@@H]3CCCc4c(NC(=O)C5CCC(=O)O5)cccc43)N2C1=O (stereo partly shown) [VII-30] | 0.01 to 0.1 | 0.01 to 0.1 |  |  | 
5 | CN[C@@H](C)C(=O)N[C@H]1CCCC[C@H]2CC[C@@H](C(=O)NCc3cccc(C(=O)N4CC5CCC4C(=O)O5)c3)N2C1=O (stereo partly shown) [VII-43] | 1 to 10 | > 10 |  |  | 
6 | CC(C)(C(N)=O)C(=O)NCCCNc1nc(Nc2cccc(NC(=O)C3CCC(=O)S3)c2)ncc1Br (stereo not shown) [XI-21] |  |  | 2 | < 0.01 | mass shift of PDPK1 as percent (PDPK1 [2]; 3 hr, 10-fold excess): 175%; modification of PDPK1 (PDPK1 [2]; 3 hr, 10-fold excess): complete multiple modification; mass shift of PDPK1 (PDPK1 [2]; 3 hr): 1,009 Da
7 | CC(C)(C(N)=O)C(=O)NCCCNc1nc(Nc2cccc(NC(=O)CNC(=O)C3CCC(=O)S3)c2)ncc1Br (stereo not shown) [XI-22] |  |  | 2 | < 0.01 | 
8 | CC(C)(C(N)=O)C(=O)NCCCNc1nc(Nc2cccc(NC(=O)CNC(=O)C3CSC(=O)C3)c2)ncc1Br (stereo not shown) [XI-26] |  |  | 1 | 0.01 to 0.1 | 
9 | CC(C)(C(N)=O)C(=O)NCCCNc1nc(Nc2cccc(NC(=O)C3CSC(=O)C3)c2)ncc1Br (stereo not shown) [XI-27] |  |  | 1 | < 0.01 | modification of PDPK1 (PDPK1 [2]; 3 hr, 10-fold excess): complete modification; mass shift of PDPK1 (PDPK1 [2]; 3 hr): 568 Da
10 | C=CC(=O)Nc1ccc(Nc2ncc(Br)c(NCCCNC(=O)C(C)(C)C(N)=O)n2)cc1 [XI-39] |  |  | 1 | 0.01 to 0.1 | 
11 | C=CC(=O)Nc1cccc(Nc2ncc(Br)c(NCCCNC(=O)C(C)(C)C(N)=O)n2)c1 [XI-53] |  |  | 1 |  | 
12 | O=C1CC[C@H](C(=O)N2CC=C(c3cc4nc(-c5cccc(O)c5)nc(N5CCOCC5)c4s3)CC2)O1 [XXII-2] |  |  |  |  | IC50 (p120γ (PI3Kγ)): 0.1 to 1 µM; IC50 (p110α/p85α (PI3Kα)): 10 to 100 nM; IC50 (HCT116): 0.1 to 1 µM
13 | C=CC(=O)N1CCN(CC#Cc2cc3nc(-c4cccc(O)c4)nc(N4CCOCC4)c3s2)CC1 [XXII-3] |  |  |  |  | IC50 (p120γ (PI3Kγ)): 0.1 to 1 µM; IC50 (HCT116): 0.1 to 1 µM
14 | CN(Cc1cc2nc(-c3cccc(O)c3)nc(N3CCOCC3)c2s1)C(=O)[C@@H]1CCC(=O)O1 [XXII-6] |  |  |  |  | IC50 (p120γ (PI3Kγ)): 0.1 to 1 µM; IC50 (p110α/p85α (PI3Kα)): 10 to 100 nM; IC50 (HCT116): 0.01 to 0.1 µM
15 | CN(Cc1cc2nc(-c3cccc(O)c3)nc(N3CCOCC3)c2s1)C(=O)[C@H]1CCC(=O)O1 [XXII-7] |  |  |  |  | IC50 (p120γ (PI3Kγ)): 0.1 to 1 µM; IC50 (p110α/p85α (PI3Kα)): 100 to 1000 nM; IC50 (HCT116): 0.01 to 0.1 µM
